Experimental data reported in patent publication US4308201A, “Phenylalanylvalylarginine derivative, process for producing same and method for measuring activity of enzymes using same” (Torii & Co., Ltd., priority 1978, dated 1981).
Residues, ends and D or L forms follow the SMILES beside them. *: point of attachment. pNA = O=[N+]([O-])c1ccc(N*)cc1; Bz = O=C(c1ccccc1)*

Experiments:
Assay type in all cases: biochemical
Kallikrein Tissue = experiment: Measurement of the activity of tissue kallikrein with the compound as substrate; details: methods of Example 3 and Comparative Example 2; p-nitroanilide substrate = 1.0
Urokinase = experiment: Measurement of the activity of urokinase with the compound as substrate; details: methods of Example 3 and Comparative Example 2; p-nitroanilide substrate = 1.0
Factor Xa = experiment: Measurement of the activity of Factor Xa with the compound as substrate; details: methods of Example 3 and Comparative Example 2; p-nitroanilide substrate = 1.0
Kallikrein Plasma = experiment: Measurement of the activity of plasma kallikrein with the compound as substrate; details: methods of Example 3 and Comparative Example 2; p-nitroanilide substrate = 1.0
thrombin = experiment: Measurement of the activity of thrombin with the compound as substrate (naphthol liberated, FVB colour, absorbance); details: for relative sensitivity, Thrombin: methods of Example 3 and Comparative Example 2, p-nitroanilide substrate = 1.0
Experimental: To 1.7 ml of 50 mM phosphate buffer solution (pH 7.0) were added 0.1 ml of thrombin at various concentrations and 0.2 ml of N-benzoyl-L-phenylalanyl-L-valyl-L-arginine 1-naphthyl ester hydrochloride solution (1.5 mM), and the resulting mixture was subjected to incubation at 25° C. for 30 min. The mixture was cooled in iced water, and 0.1 ml of 1% FVB was added thereto. The resulting mixture was allowed to stand at 0° C. for 10 min, and 1 ml of glacial acetic acid was further added thereto. The color thus developed was measured as absorbance (505 nm) by means of a spectrophotometer, thereby determining the amount of the naphthol liberated by hydrolysis with the enzyme. As a control, the buffer solution same as above but free from thrombin was used. The amount of the naphthol liberated corresponded to the activity of the enzyme.
To 0.1 ml of thrombin were added 0.3 ml of Nα-tosyl-L-arginine methyl ester hydrochloride solution (10 micromoles/0.4 ml of 5% DMSO) and 0.6 ml of phosphate buffer solution (pH 7.4), and the resulting mixture was subjected to incubation at 37° C. for 30 min, after which 1.5 ml of a hydroxylamine solution (a mixture of equal amounts of 2 M NH2 OH hydrochloride and 3.5 M NaOH) was added thereto. The resulting mixture was allowed to stand at room temperature for 15 min. Thereto were added 1 ml of 18% trichloroacetic acid solution, 1 ml of 4 N hydrochloric acid, and 1 ml of 10% ferric chloride solution. The resulting mixture was thoroughly stirred and then centrifuged at 3,000 r.p.m. for 10 min. The color thus developed of the supernatant was measured as absorbance (530 l nm) by means of a spectrophotometer. The value obtained corresponds to the amount of the substrate remaining unhydrolyzed with thrombin, and therefore, and activity of the enzyme corresponds to the difference between the value obtained when no enzyme was used (control) and the value obtained after the enzyme reaction.
To 2.15 ml of […] tris HCl buffer solution (pH 8.0) were added 0.1 ml of thrombin at various concentrations and 0.25 ml of an N-benzoyl-L-phenylalanyl-L-valyl-L-arginine p-nitroanilide hydrochloride solution (1mM/H2 O), and the resulting mixture was subjected to incubation at 37° C. for 30 min. To the mixture was added 0.3 ml of glacial acetic acid, and the color developed was measured as absorbance (405 nm) by means of a spectrophotometer.

relative sensitivity, Urokinase (Urokinase) | SMILES | relative sensitivity, Kallikrein Tissue (Kallikrein Tissue) | relative sensitivity, Factor Xa (Factor Xa) | relative sensitivity, Kallikrein Plasma (Kallikrein Plasma) | relative sensitivity, Thrombin (thrombin) | sensitivity relative to that of Nα-tosyl-L-arginine methyl ester (thrombin; thrombin activity measured with the compound as substrate) | detection sensitivity relative to Comparative Example 2 (thrombin; versus N-benzoyl-L-phenylalanyl-L-valyl-L-arginine p-nitroanilide hydrochloride as substrate, standard curves of the drawing) | detection sensitivity relative to Comparative Example 1 (thrombin; versus Nα-tosyl-L-arginine methyl ester hydrochloride as substrate (hydroxamate method), standard curves of the drawing)
40 | CC(C)[C@H](NC(=O)[C@H](Cc1ccccc1)NC(=O)c1ccccc1)C(=O)N[C@@H](CCCNC(=N)N)C(=O)Oc1cccc2ccccc12.Cl [N-benzoyl-L-phenylalanyl-L-valyl-L-arginine 1-naphthyl ester hydrochloride] | 30 | 15 | 12.5 | 5.0 | about 31 times | about 5 times | about 30 times
1.0 | CC(C)[C@H](NC(=O)[C@H](Cc1ccccc1)NC(=O)c1ccccc1)C(=O)N[C@@H](CCCNC(=N)N)C(=O)Nc1ccc([N+](=O)[O-])cc1.Cl [N-benzoyl-L-phenylalanyl-L-valyl-L-arginine p-nitroanilide hydrochloride, reference compound] (Bz-Phe-Val-Arg-pNA) | 1.0 | 1.0 | 1.0 | 1.0 |  |  | 
